Legend:
[1] = Whole blood stability, human; assay type: in vitro ADME
From the text: (§1) The results of the assay on stability in blood and IC50 values for pancreatic cancer cell line KP4 are given below in Table 24.

[2] = Whole blood stability, mouse; assay type: in vitro ADME
From the text: as §1

[3] = tested on: KP4; assay: Cell viability assay (CellTiter Glo), pancreatic ductal adenocarcinoma KP4; assay type: cell-based, human; conditions: Homo sapiens, KP-4, 96 h, pancreatic cancer cell line KP4, 96 hours, CellTiter Glo; read-out: IC50 μM KP4
Outline: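 KP4 cells seeded at 1,000–10,000 per well, treated 96 h with 9-point 3-fold dilutions from 30 μM top (4.6 nM–30 μM, duplicates; ≤0.25% DMSO). Viability by CellTiter Glo luminescence; % inhibition relative to DMSO-only wells, giving IC50, relative IC50 or % top inhibition.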

Whole Blood Stability % Remaining at 37° C. Human ([1]; 0 min) [%] | Whole Blood Stability % Remaining at 37° C. Human ([1]; 30 min) [%] | Whole Blood Stability % Remaining at 37° C. Human ([1]; 60 min) [%] | Whole Blood Stability % Remaining at 37° C. Mouse ([2]; 0 min) [%] | Whole Blood Stability % Remaining at 37° C. Mouse ([2]; 30 min) [%] | Whole Blood Stability % Remaining at 37° C. Mouse ([2]; 60 min) [%] | IC50 [3] [µM] | SMILES
100.0 | 48.9 | 51.5 | 100.0 | 97.9 | 65.6 | 0.1 to 0.5 | CN(C)C(=O)[C@H]1Cc2c([nH]c3ccccc23)[C@H](c2ccc(S(C)(=O)=O)cc2)N1C(=O)CCl [Compound 59]
100.0 | 109.5 | 85.6 | 100.0 | 1.5 | 0.0 | 0.01 to 0.1 | COC(=O)c1ccc([C@H]2c3[nH]c4cccc(Br)c4c3C[C@H](C(=O)OC)N2C(=O)CCl)cc1 [Compound 95]
100.0 | 78.5 | 52.9 | 100.0 | 66.1 | 30.0 | < 0.01 | COC(=O)[C@H]1Cc2c([nH]c3ccccc23)[C@H](c2ccc(NCC3CC3)cc2)N1C(=O)CCl [Compound 83]
100.0 | 65.8 | 47.2 | 100.0 | 0.0 | 0.0 | < 0.01 | COC(=O)c1ccc([C@H]2c3[nH]c4ccc(F)cc4c3C[C@H](C(=O)OC)N2C(=O)CCl)cc1 [Compound 91]
100.0 | 29.1 | 10.9 | 100.0 | 0.0 | 0.0 | < 0.01 | COC(=O)c1ccc([C@H]2c3[nH]c4cc(Br)ccc4c3C[C@H](C(=O)OC)N2C(=O)CCl)cc1 [Compound 96]
100.0 | 47.1 | 22.9 | 100.0 | 67.7 | 55.7 | 0.01 to 0.1 | COC(=O)[C@H]1Cc2c([nH]c3ccccc23)[C@H](c2ccc(C(=O)N3CCOCC3)cc2)N1C(=O)CCl [Compound 26]
100.0 | 49.2 | 34.0 | 100.0 | 20.5 | 6.8 | < 0.01 | CN(C)C(=O)[C@H]1Cc2c([nH]c3ccc(Br)cc23)[C@H](c2ccc(C(=O)OC(C)(C)C)cc2)N1C(=O)CCl [Compound 61]
100.0 | 94.5 | 67.9 | 100.0 | 4.0 | 0.0 | > 1 | CC[C@H]1Cc2c([nH]c3ccccc23)[C@@H](c2ccc(C(=O)OC)cc2)N1C(=O)CCl [Compound 99]
100.0 | 66.3 | 44.9 | 100.0 | 0.0 | 0.0 | 0.1 to 0.5 | COC(=O)c1ccc([C@H]2c3[nH]c4ccc(Cl)cc4c3C[C@H](C(=O)OC)N2C(=O)CCl)cc1 [Compound 93]
100.0 | 104.9 | 113.4 | 100.0 | 75.6 | 80.6 | > 1 | COC(=O)[C@H]1CC2c3ccccc3NC2[C@H](c2ccc(C(=O)OC(C)(C)C)cc2)N1C(=O)C(F)(F)Cl (stereo partly drawn) [Compound 34]
100.0 | 38.0 | 15.5 | 100.0 | 8.3 | 3.2 | > 1 | CC(C)(C)OC(=O)c1ccc([C@@H]2c3[nH]c4ccccc4c3C[C@H](CO)N2C(=O)CCl)cc1 [Example 64a]
100.0 | 59.3 | 57.9 | 100.0 | 76.6 | 63.9 | > 1 | COC(=O)[C@H]1Cc2c([nH]c3ccccc23)[C@H](c2ccc(C(=O)O)cc2)N1C(=O)CCl [Compound 4]
100.0 | 44.9 | 40.4 | 100.0 | 42.9 | 13.8 | 0.01 to 0.1 | CN(C)C(=O)[C@H]1Cc2c([nH]c3ccccc23)[C@H](c2ccc(C(=O)N(CCC(=O)OC(C)(C)C)C(C)(C)C)cc2)N1C(=O)CCl [Compound 54]
100.0 | 98.4 | 75.2 | 100.0 | 87.1 | 56.6 | < 0.01 | C[C@H]1Cc2c([nH]c3ccccc23)[C@H](c2ccc(N3CCOCC3)cc2)N1C(=O)CCl [Compound 103, 2-chloro-1-((1S,3S)-3-methyl-1-(4-morpholinophenyl)-1,3,4,9-tetrahydro-2H-pyrido[3,4-b]indol-2-yl)ethan-1-one]
100.0 | 40.2 | 21.0 | 100.0 | 0.0 | 0.0 | 0.1 to 0.5 | COC(=O)c1ccc([C@@H]2c3[nH]c4ccc(F)cc4c3C[C@H](C(=O)OC)N2C(=O)CCl)cc1 [Compound 92]
100.0 | 96.1 | 68.1 | 100.0 | 79.2 | 87.7 | < 0.01 | C[C@H]1Cc2c([nH]c3ccccc23)[C@H](c2ccc(C3CCCC3)cc2)N1C(=O)CCl [Compound 109]
100.0 | 62.1 | 38.1 | 100.0 | 85.3 | 75.9 | 0.5 to 1 | COC(=O)[C@H]1Cc2c([nH]c3ccccc23)[C@H](c2ccc(S(=O)(=O)N[C@]34C[C@H]5C[C@H](C[C@H](C5)C3)C4)cc2)N1C(=O)/C=C/CCl [Compound 30]
100.0 | 100.2 | 68.8 | 100.0 | 60.7 | 0.0 | < 0.01 | CCC[C@H]1Cc2c([nH]c3ccccc23)[C@H](c2ccc(N3CCOCC3)cc2)N1C(=O)CCl [Compound 118]
100.0 | 46.8 | 29.8 | 100.0 | 82.2 | 113.2 | < 0.01 | C[C@H]1Cc2c([nH]c3ccccc23)[C@H](c2ccc(S(=O)(=O)N[C@]34CC5C[C@H](C[C@H](C5)C3)C4)cc2)N1C(=O)CCl [Compound 101]
100 | 43.0 | 29.4 | 100 | 51.3 | 23.6 | > 1 | COC(=O)c1ccc([C@H]2c3[nH]c4ccccc4c3C[C@H](C(=O)O)N2C(=O)CCl)cc1 [Compound 3]
100.0 | 60.9 | 44.3 | 100.0 | 35.8 | 10.8 | < 0.01 | COC(=O)c1cccc([C@H]2c3[nH]c4ccccc4c3C[C@H](C(=O)OC)N2C(=O)CCl)c1 [Compound 100]

Reference: patent US11098040B2, “Compounds and methods of use” (Ferro Therapeutics, Inc., priority 2018, dated 2021)
